According to paper PMC4312629, “Pharmacokinetics of Etravirine Combined with Atazanavir/Ritonavir and a Nucleoside Reverse Transcriptase Inhibitor in Antiretroviral Treatment-Experienced, HIV-1-Infected Patients” (AIDS Research and Treatment, 2015):
Where two headings read alike, the source gives them in different places.

Legend:
[1] = TEACH: steady-state plasma pharmacokinetics of atazanavir and etravirine (LC-MS/MS, noncompartmental analysis); assay type: in vivo, HIV-1-infected patients
Method: Blood samples for analyses of atazanavir and ritonavir plasma concentrations were collected over 24 hours (before dose and 1, 2, 3, 4, 6, 9, 12, and 24 hours after dose) on the last day of the two-week pretreatment period and after Week 2 of the treatment period. Blood samples for evaluation of etravirine plasma concentrations were collected after Week 2. Atazanavir, ritonavir, and etravirine were assayed using validated liquid chromatography-mass spectrometry/mass spectrometry, with a lower limit of quantification of 250 ng/mL, 5.00 ng/mL, and 2.00 ng/mL, respectively.
Pharmacokinetic parameters were obtained using noncompartmental analysis (WinNonlin Professional version 4.1, Pharsight, Mountain View, CA, USA) and included C min, maximum plasma concentration (C max), and AUC12 h for etravirine and AUC24 h for atazanavir and ritonavir.
The least square means (LSM) of C min, C max, and AUC24 for atazanavir and ritonavir were estimated with a linear mixed-effects model, including treatment as fixed effect and subject as a random effect (SAS version 9.3, SAS Institute, Cary, NC, USA). A 90% confidence interval (CI) was constructed around the difference between the LSM of test and reference. The LSM differences and 90% CIs were retransformed to the original scale. No effect (prespecified) was declared if the 90% CIs of the LSM ratio were within the limits of 80.00–125.00%. The pharmacokinetics of etravirine was compared with historic data from DUET [21].

HIV-1 = conditions: for median etravirine FC (range): virologic failures (n = 12)
Description: The main inclusion criteria were HIV-1-infected adults who had previously received ≥1 antiretroviral regimen but failed ≤1 PI-based regimen and were currently on a stable but failing antiretroviral regimen (viral load [VL] > 500 copies/mL at screening) (Cobas Amplicor HIV-1 VL assay, Roche Molecular Systems, Inc., Branchburg, NJ, USA; assay performed by Covance Central Laboratory Services). Patients were required to be sensitive to atazanavir, etravirine, and the selected NRTIs (with the exception of emtricitabine or lamivudine) based on resistance testing at screening using the PhenoSense GT assay (Monogram Biosciences, South San Francisco, CA, USA). […] The clinical cut-offs used for etravirine and boosted atazanavir were 2.9–10.0 and 5.2, respectively.
During the treatment session, plasma VL was determined at baseline, Weeks 2 and 4, and monthly until Week 48. Virologic failures were classified as patients who were still in the study at Week 12 and (i) who never achieved two consecutive VL values < 50 copies/mL (nonresponders) or (ii) first achieved two consecutive VL values < 50 copies/mL followed by two consecutive VL values > 50 copies/mL or discontinued for any reason with VL > 50 copies/mL (rebounders). Changes in viral phenotype and genotype in virologic failures were determined using the PhenoSense GT assay.

[2] = TEACH pharmacokinetic substudy: addition of TDF for seven days to atazanavir/ritonavir and etravirine; conditions: adding TDF to ATV/r and etravirine, both ATV/r dose groups combined (7 patients), compared with Day −1
Method: The trial consisted of a ≤4-week screening period, a pretreatment period of two weeks (atazanavir/ritonavir 300/100 mg qd and two NRTIs), and a 48-week treatment period. Patients were randomized 1 : 1, by a computer-generated interactive web response system, to receive either atazanavir/ritonavir 300/100 mg qd or 400/100 mg qd (Figure 1). […] Atazanavir/ritonavir 400/100 mg qd was given to the other group to offset the potential reduction in atazanavir exposure, while at the same time investigating if the higher dose of atazanavir might further affect etravirine exposure. At baseline, in both groups, one of the two NRTIs was switched to etravirine 200 mg bid. NRTIs were selected by the investigators based on resistance testing; however, tenofovir disoproxil fumarate (TDF) was not permitted. Patients who were intolerant to their NRTI could switch to another sensitive NRTI, excluding TDF. Tenofovir decreases both atazanavir and etravirine exposure.
Seven patients participated in the pharmacokinetic substudy, 3 patients randomized to atazanavir/ritonavir 300/100 mg qd and 4 patients randomized to atazanavir/ritonavir 400/100 mg qd. Because of the small sample size, results of the two groups were combined.

[3] = design: method as in PMID 20881958; conditions: Pooled DUET: ETR 200 mg bid + DRV/r 600/100 mg bid, Week 4 (reference, n = 25), cited from earlier work
[4] = healthy volunteers; etravirine 800 mg bid (formulation TF035) and ATV/r 300/100 mg qd; cited from earlier work
[5] = Test 1 (with ATV/r 300/100 mg qd, Week 2) versus pooled DUET reference (ETR + DRV/r, Week 4)
[6] = Test 2 (with ATV/r 400/100 mg qd, Week 2) versus pooled DUET reference (ETR + DRV/r, Week 4)
[7] = with ATV/r 300/100 mg qd, compared with historic control data (DUET)
[8] = with ATV/r 400/100 mg qd, compared with historic data (DUET)

## COC(=O)N[C@H](C(=O)N[C@@H](Cc1ccccc1)[C@@H](O)CN(Cc1ccc(-c2ccccn2)cc1)NC(=O)[C@@H](NC(=O)OC)C(C)(C)C)C(C)(C)C [atazanavir]
[1]; human, in vivo, Test 1: ATV/r 300/100 mg qd + one NRTI + ETR 200 mg bid, Week 2, median (range), read-out: atazanavir t max
  Tmax: 3 h
HIV-1; virologic failures, baseline to endpoint
  change in atazanavir FC: no increase

## Cc1cc(C#N)cc(C)c1Oc1nc(Nc2ccc(C#N)cc2)nc(N)c1Br [etravirine]
[2]
  decrease in etravirine AUC12 h: 15%
  decrease in etravirine C max: 19%
  etravirine AUC12 h LSM ratio [90% CIs]: 0.85 [0.79–0.92]
  etravirine C max LSM ratio [90% CIs]: 0.81 [0.72–0.91]
[3]; mean ± SD
  etravirine AUC0–12 h: 7964 ± 11180 ng·h/mL
  etravirine C 0 h: 545.0 ± 818.6 ng/mL
  etravirine C max: 879.6 ± 1030 ng/mL
  etravirine C min: 452.6 ± 806.0 ng/mL
[3]; median (range)
  etravirine t max: 3.95 (0.08–6.08) h
[1]; [5]
  etravirine AUC0–12 h LSM ratio (90% CI) of test versus reference: 1.24 (0.88–1.76)
  etravirine C max LSM ratio (90% CI) of test versus reference: 1.06 (0.78–1.46)
  etravirine C min LSM ratio (90% CI) of test versus reference: 1.07 (0.60–1.90)
[1]; [6]
  etravirine AUC0–12 h LSM ratio (90% CI) of test versus reference: 0.84 (0.60–1.18)
  etravirine C max LSM ratio (90% CI) of test versus reference: 0.87 (0.65–1.18)
  etravirine C min LSM ratio (90% CI) of test versus reference: 0.83 (0.54–1.29)
[1]; [7]
  increase in etravirine AUC12 h: 24%
  increase in etravirine C max: 6%
  increase in etravirine C min: 7%
[1]; [8]
  decrease in etravirine AUC12 h: 16%
  decrease in etravirine C max: 13%
  decrease in etravirine C min: 17%
[4]
  increase in etravirine AUC24 h: 1.3 fold
  increase in etravirine C min: 1.3 fold
HIV-1; at baseline
  median etravirine FC (range): 0.73 (0.4–1.7)
HIV-1; at endpoint
  median etravirine FC (range): 2.99 (0.6–40.0)
